These results are taken from US9636418B2 (priority 2013, dated 2017).

SMILES strings stand for the structures. Some results are limits rather than exact numbers.

Test in all cases: cell-based
One experiment addresses hNav1.5 (Homo sapiens, UniProt Q14524). The settings on record: IonWorks Quattro; read-out: IC50 Nav1.5. Background: In patch-clamp work, channel activity is measured electrically.
In another experiment the target is hNav1.3 (Homo sapiens, UniProt Q9NY46). The settings on record: IonWorks Quattro; read-out: IC50 Nav1.3.
The next experiment concerns the target hNav1.4 (Homo sapiens, UniProt P35499). The settings on record: for IC50: IonWorks Quattro, read-out: IC50 Nav1.4; for Nav1.4/Nav1.7: ratio of IonWorks Quattro IC50 values.
The target of the next experiment is hNav1.7 (Homo sapiens, UniProt Q15858). The settings on record: IonWorks Quattro; read-out: IC50 Nav1.7.
Sequence of hNav1.7 (Q15858 whole entry): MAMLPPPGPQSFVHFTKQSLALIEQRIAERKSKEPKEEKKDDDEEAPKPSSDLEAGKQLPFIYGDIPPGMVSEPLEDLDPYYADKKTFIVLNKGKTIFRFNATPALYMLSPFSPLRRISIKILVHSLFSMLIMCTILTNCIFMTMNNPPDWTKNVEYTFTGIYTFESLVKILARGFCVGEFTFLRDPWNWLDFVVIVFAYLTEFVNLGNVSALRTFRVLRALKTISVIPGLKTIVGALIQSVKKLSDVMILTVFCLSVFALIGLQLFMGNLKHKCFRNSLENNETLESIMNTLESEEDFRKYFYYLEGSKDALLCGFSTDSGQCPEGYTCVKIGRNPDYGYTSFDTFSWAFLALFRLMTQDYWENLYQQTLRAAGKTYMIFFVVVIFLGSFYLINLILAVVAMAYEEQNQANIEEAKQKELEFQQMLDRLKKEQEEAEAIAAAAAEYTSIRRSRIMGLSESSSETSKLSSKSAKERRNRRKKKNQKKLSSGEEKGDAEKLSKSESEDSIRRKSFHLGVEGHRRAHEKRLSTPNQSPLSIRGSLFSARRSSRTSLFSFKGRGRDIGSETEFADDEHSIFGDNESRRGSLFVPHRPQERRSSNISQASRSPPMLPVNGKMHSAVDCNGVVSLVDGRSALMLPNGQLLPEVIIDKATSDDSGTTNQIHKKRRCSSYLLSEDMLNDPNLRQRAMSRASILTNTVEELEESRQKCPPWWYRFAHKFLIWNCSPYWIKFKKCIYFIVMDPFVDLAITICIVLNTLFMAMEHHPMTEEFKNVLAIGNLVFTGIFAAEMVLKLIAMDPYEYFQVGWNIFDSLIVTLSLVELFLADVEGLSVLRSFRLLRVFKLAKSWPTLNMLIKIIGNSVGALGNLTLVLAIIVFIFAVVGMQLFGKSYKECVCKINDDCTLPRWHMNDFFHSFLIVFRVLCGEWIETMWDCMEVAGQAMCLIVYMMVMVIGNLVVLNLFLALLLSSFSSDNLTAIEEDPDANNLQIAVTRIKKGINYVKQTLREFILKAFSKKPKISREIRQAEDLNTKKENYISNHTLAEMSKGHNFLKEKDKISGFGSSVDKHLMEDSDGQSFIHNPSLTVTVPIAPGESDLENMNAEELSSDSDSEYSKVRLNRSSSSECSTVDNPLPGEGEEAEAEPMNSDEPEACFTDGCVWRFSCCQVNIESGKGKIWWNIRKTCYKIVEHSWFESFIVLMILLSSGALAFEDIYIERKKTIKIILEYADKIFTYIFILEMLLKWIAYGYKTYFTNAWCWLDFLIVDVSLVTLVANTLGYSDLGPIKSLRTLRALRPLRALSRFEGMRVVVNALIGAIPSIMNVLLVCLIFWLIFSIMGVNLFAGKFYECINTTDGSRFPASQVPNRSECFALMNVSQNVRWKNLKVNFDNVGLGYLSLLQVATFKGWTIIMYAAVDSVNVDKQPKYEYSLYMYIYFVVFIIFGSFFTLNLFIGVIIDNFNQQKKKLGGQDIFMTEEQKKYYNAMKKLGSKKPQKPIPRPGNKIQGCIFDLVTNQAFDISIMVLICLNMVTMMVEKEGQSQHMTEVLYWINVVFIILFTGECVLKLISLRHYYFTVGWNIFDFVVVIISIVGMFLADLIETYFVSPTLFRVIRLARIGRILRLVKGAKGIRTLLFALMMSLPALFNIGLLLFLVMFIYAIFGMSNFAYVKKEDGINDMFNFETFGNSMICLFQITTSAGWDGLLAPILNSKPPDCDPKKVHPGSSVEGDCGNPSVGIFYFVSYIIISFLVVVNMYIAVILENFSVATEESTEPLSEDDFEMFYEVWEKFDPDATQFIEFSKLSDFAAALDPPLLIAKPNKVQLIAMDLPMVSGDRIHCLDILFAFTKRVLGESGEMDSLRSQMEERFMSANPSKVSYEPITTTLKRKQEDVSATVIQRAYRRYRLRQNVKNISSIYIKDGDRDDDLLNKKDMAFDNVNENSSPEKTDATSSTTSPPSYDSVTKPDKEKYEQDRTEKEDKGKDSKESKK

Sequence of hNav1.5 (Q14524 whole entry): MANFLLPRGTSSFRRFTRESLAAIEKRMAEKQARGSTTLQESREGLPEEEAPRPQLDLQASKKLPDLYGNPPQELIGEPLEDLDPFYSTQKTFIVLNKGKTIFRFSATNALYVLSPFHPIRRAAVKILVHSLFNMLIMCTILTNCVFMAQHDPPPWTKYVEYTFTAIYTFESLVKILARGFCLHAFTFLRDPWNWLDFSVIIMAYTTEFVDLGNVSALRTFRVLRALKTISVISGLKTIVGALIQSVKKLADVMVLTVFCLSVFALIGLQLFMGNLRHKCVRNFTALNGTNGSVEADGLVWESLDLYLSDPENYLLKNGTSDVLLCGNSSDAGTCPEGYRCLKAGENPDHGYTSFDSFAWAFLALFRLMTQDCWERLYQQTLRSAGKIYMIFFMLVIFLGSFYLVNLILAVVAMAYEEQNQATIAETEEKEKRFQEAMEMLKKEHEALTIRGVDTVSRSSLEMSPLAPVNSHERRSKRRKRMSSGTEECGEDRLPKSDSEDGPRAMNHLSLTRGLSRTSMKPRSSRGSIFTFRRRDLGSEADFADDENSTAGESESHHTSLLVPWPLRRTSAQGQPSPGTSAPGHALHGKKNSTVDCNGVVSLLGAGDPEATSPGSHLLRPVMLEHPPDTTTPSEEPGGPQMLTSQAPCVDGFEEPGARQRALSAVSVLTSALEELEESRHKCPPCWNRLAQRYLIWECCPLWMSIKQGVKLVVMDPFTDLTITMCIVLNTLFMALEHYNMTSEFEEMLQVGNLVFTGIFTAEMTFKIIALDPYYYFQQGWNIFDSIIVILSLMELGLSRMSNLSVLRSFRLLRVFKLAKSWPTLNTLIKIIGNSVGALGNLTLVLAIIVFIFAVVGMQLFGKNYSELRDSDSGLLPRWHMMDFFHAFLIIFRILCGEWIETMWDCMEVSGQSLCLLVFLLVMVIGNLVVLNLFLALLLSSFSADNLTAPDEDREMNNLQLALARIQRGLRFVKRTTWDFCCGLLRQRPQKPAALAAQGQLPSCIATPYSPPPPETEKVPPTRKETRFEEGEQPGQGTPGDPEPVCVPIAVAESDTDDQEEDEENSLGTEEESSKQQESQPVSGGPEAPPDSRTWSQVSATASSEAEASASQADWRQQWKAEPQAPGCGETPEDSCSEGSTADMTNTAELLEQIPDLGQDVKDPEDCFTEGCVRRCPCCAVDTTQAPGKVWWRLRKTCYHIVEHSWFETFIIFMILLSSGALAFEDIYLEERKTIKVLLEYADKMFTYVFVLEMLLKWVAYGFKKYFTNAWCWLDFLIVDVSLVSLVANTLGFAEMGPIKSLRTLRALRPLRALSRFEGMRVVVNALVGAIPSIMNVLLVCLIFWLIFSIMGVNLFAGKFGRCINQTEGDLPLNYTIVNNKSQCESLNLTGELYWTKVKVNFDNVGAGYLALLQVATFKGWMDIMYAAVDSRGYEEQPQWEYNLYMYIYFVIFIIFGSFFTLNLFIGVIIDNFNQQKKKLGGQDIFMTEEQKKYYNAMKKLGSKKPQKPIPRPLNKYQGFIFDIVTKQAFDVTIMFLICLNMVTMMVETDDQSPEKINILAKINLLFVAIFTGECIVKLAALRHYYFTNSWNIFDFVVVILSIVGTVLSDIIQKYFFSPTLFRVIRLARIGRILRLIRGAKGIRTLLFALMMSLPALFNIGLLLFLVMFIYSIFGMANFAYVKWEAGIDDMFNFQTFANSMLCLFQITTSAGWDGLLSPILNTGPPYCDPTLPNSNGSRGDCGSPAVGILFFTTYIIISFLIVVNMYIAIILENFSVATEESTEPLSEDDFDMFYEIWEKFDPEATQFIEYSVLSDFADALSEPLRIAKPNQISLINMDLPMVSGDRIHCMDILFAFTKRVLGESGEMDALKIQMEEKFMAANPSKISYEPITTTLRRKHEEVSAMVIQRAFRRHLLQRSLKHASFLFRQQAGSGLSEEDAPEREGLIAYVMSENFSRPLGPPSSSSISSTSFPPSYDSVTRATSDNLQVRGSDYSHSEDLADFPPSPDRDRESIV

Broadly, the IC50 is the concentration at which inhibition is half-maximal. As to `CC[C@H](C)[C@H](NC(=O)[C@@H](NC(=O)[C@H](CCCCN)NC(=O)[C@H](CCCNC(=N)N)NC(=O)[C@@H]1CSSC[C@@H]2NC(=O)[C@H](C)NC(=O)[C@H](CCCNC(=N)N)NC(=O)[C@H](CCCCN)NC(=O)[C@H](CO)NC(=O)[C@H](CC(=O)O)NC(=O)[C@@H]3CSSC[C@H](NC(=O)[C@H](CCCNC(N)=O)NC(=O)[C@H](CC(C)C)NC(=O)CNC(=O)[C@H](CCC(=O)O)NC(=O)[C@H](CSSC[C@H](NC(=O)[C@@H](N)Cc4ccc(O)cc4)C(=O)N[C@@H](CCC(N)=O)C(=O)N[C@@H](CCCCN)C(=O)N[C@@H](Cc4c[nH]c5ccccc45)C(=O)N[C@@H](CCSC)C(=O)N[C@@H](Cc4c[nH]c5ccccc45)C(=O)N[C@@H]([C@@H](C)O)C(=O)N3)NC2=O)C(=O)N[C@@H](CCCCN)C(=O)N[C@@H](CC(C)C)C(=O)N[C@@H](Cc2c[nH]c3ccccc23)C(=O)N1)[C@@H](C)CC)C(N)=O` [compound 122], the IC50 at hNav1.5 amounted to 6.8 µM; at hNav1.3 it was 350 nM; on hNav1.4, 500 nM; at hNav1.7, 40 nM. Also, on hNav1.4, the Nav1.4/Nav1.7 turned out to be 15.

For `CCC[C@@H]1NC(=O)[C@H](CC(C)C)NC(=O)CNC(=O)[C@H](CCC(=O)O)NC(=O)[C@@H]2CSSC[C@H](NC(=O)[C@@H](N)Cc3ccc(O)cc3)C(=O)N[C@@H](CCC(N)=O)C(=O)N[C@@H](CCCCN)C(=O)N[C@@H](Cc3c[nH]c4ccccc34)C(=O)N[C@@H](CCSC)C(=O)N[C@@H](Cc3c[nH]c4ccccc34)C(=O)N[C@@H]([C@@H](C)O)C(=O)N[C@H]3CSSC[C@H](NC1=O)C(=O)N[C@@H](CCCCN)C(=O)N[C@@H](CC(C)C)C(=O)N[C@@H](Cc1c[nH]c4ccccc14)C(=O)N[C@H](C(=O)N[C@@H](CCCNC(=N)N)C(=O)N[C@@H](CCCCN)C(=O)N[C@H](C(=O)N[C@H](C(N)=O)[C@@H](C)CC)[C@@H](C)CC)CSSC[C@H](NC(=O)[C@H](C)NC(=O)[C@H](CCCNC(=N)N)NC(=O)[C@H](CCCCN)NC(=O)[C@H](CO)NC(=O)[C@H](CC(=O)O)NC3=O)C(=O)N2` [compound 123], the IC50 at hNav1.5 was 10.4 µM; on hNav1.3, more than 5000 nM; at hNav1.4, 3100 nM; on hNav1.7 it was 170 nM. Besides, the Nav1.4/Nav1.7 at hNav1.4 turned out to be 19.

Take `CC[C@H](C)[C@H](NC(=O)[C@@H](NC(=O)[C@H](CCCCN)NC(=O)[C@H](CCCNC(=N)N)NC(=O)[C@@H]1CSSC[C@@H]2NC(=O)[C@H](C)NC(=O)[C@H](CCCNC(=N)N)NC(=O)[C@H](CCCCN)NC(=O)[C@H](CO)NC(=O)[C@H](CC(=O)O)NC(=O)[C@@H]3CSSC[C@H](NC(=O)[C@H](CO)NC(=O)[C@H](CC(C)C)NC(=O)CNC(=O)[C@H](CCC(=O)O)NC(=O)[C@H](CSSC[C@H](NC(=O)[C@@H](N)Cc4ccc(O)cc4)C(=O)N[C@@H](CCC(N)=O)C(=O)N[C@@H](CCCCN)C(=O)N[C@@H](Cc4c[nH]c5ccccc45)C(=O)N[C@@H](CCSC)C(=O)N[C@@H](Cc4c[nH]c5ccccc45)C(=O)N[C@@H]([C@@H](C)O)C(=O)N3)NC2=O)C(=O)N[C@@H](CCCCN)C(=O)N[C@@H](CC(C)C)C(=O)N[C@@H](Cc2c[nH]c3ccccc23)C(=O)N1)[C@@H](C)CC)C(N)=O` [compound 125]: the IC50 at hNav1.5 was determined as 9.2 µM; on hNav1.3, 290 nM; on hNav1.4, 400 nM; on hNav1.7, 30 nM. In addition, at hNav1.4, the Nav1.4/Nav1.7 came to 17.
